Experiments:
B. trispora [1] = experiment: Effect on beta-carotene production with B. trispora in shake flask fermentation (HPLC); assay type: cell-based, Blakeslea trispora; settings: for BC: average of two measurements; for Increase BC: compared to control with no curcumin/isoniazid
Procedure: (§1) Shake flask seed medium MIBLT-1. 23.5 g/l corn meal, 23 g/l soybean meal, 10 g/l glucose, 0.5 g/l KH2PO4 are mixed, the medium pH is adjusted to 6.3, homogenized with an Ultra-Turrax® blender (Ika) for 8 minutes at 13500 rpm, and heated at 70° C. for 45 minutes prior to autoclaving.
(§2) Shake flask production medium MF-BLT-22. 17.5 g/l corn meal, 40 g/l soya flour, 10 g/l soy lecithin, 0.5 g/l KH2PO4, 109 g/l soy oil, optionally 0.28 g/l isoniazid, optionally curcumin (1.0, 0.3, 0.1, 0.03 or 0.01% w/v), are mixed, the medium pH is adjusted to 6.3, is homogenized with an Ultra-Turrax® blender (Ika) for 8 minutes at 13500 rpm, and heated at 70° C. for 45 minutes prior to autoclaving.
(§3) Shake Flask Process. An Erlenmeyer flask (250 or 300 mL volume) containing 30 ml of seed medium (MIBLT-1) is inoculated with spores of B. trispora (−) strain to a concentration of 4.5×10^3 spores/ml. A second Erlenmeyer flask containing 30 ml of MIBLT-1 is inoculated with spores of B. trispora (+) strain to a concentration of 1.5×10^3 spores/ml. The flasks are incubated (220 rpm, 5 cm displacement, 27° C., protected from light) for 48 hr. Three ml of (+) strain culture are added to 30 ml of (−) strain culture, and the mated strains mixture is incubated (220 rpm, 5 cm throw, 27° C., protected from light) for 45 minutes. Erlenmeyer flasks (250 or 300 mL volume) containing 20 ml of production medium (MF-BLT-22) are inoculated with 2 ml of the mated strains mixture. Flasks are incubated (250 rpm, 5 cm displacement, 25° C., protected from light). At 48 hours after inoculation of the 20 mL production cultures, 40 μL of a 50% v/v sterile beta-ionone solution in absolute ethanol is added to each flask. Cultures are returned to the incubator for a total of 7 days post inoculation.
(§4) Sample preparation for HPLC-analysis. Each flask culture is transferred to a 50 mL conical tube and homogenized with an Ultra-Turrax® blender (Ika) for 2 minutes at 24000 rpm. Weigh out one gram of sample into a 100 ml volumetric flask. Eighty milliliters of Solution A are added to the flask and the flask is sonicated for 5 min. The volume is brought to 100 ml with solution A, and the solution is stirred for 60 minutes and allowed to settle for another hour.
(§5) HPLC-analysis. Samples from the above extract (10 μl) are injected as is on a calibrated HPLC using a Suplex-PKB-100 column (Supelco), with a flow rate of 0.6 ml/min, and column temperature of 30° C. The mobile phase contains (per L) 455 ml acetonitrile, 500 ml methanol, 0.2 ml N-ethyldiisopropylamine, 25 ml aqueous solution of 0.2% ammonium acetate, and 50 mg BHT (dissolved in 20 ml of 2-propanol). Compounds are identified and quantified by UV at 448 nm.
Concentration of beta-carotene was measured as described in Example 1, with comparison of different concentrations of curcumin.

B. trispora [2] = experiment: Effect on beta-carotene purity profile with B. trispora (percentage of total carotenoids, HPLC); assay type: cell-based, Blakeslea trispora; settings: for 7,8-DH [%] of total carotenoids / BC [%] of total carotenoids: average of two measurements
Procedure: as §1, §2, §3, §4, §5
Fermentations and analysis were performed as described in Ex. 2, including addition of various concentrations of curcumin.

[3] = curcumin 0.3% w/v, listed as Curcumin

## COc1cc(/C=C/C(=O)CC(=O)/C=C/c2ccc(O)c(OC)c2)ccc1O [curcumin]
B. trispora [1]; curcumin 0.01% w/v in production medium, no isoniazid
  BC: 1.74 g/L
B. trispora [1]; curcumin 0.01% w/v
  Increase BC: 12%
B. trispora [1]; curcumin 0.03% w/v in production medium, no isoniazid
  BC: 2.45 g/L
B. trispora [1]; curcumin 0.03% w/v
  Increase BC: 58%
B. trispora [1]; curcumin 0.1% w/v in production medium, no isoniazid
  BC: 3.48 g/L
B. trispora [1]; curcumin 0.1% w/v
  Increase BC: 125%
B. trispora [1]; curcumin 0.3% w/v in production medium, no isoniazid
  BC: 4.99 g/L
B. trispora [1]; curcumin 0.3% w/v
  Increase BC: more than 220%
B. trispora [1]; [3]
  Increase BC: 222%
B. trispora [1]; curcumin 1.0% w/v in production medium, no isoniazid
  BC: 4.55 g/L
B. trispora [1]; curcumin 1.0% w/v
  Increase BC: 194%
B. trispora [2]; 0.3% curcumin, compared to fermentations without curcumin
  increase of percentage of beta-carotene based on total carotenoids: about 10%
B. trispora [2]; about 0.3 to 1.0% curcumin
  percentage of 7,8-dihydro-beta-carotene based on total carotenoids: about 3%
B. trispora [2]; about 1.0% (w/v) curcumin, compared to no curcumin
  reduction of 7,8-dihydro-beta-carotene based on total carotenoids: about 68%
B. trispora [2]; addition of curcumin (amount not specified), compared to fermentation without curcumin
  reduction of 7,8-dihydro-beta-carotene based on total carotenoids: at least 28%
B. trispora [2]; curcumin 0.01% w/v
  7,8-DH [%] of total carotenoids: 9.98%
  BC [%] of total carotenoids: 81.19%
B. trispora [2]; curcumin 0.03% w/v
  7,8-DH [%] of total carotenoids: 6.99%
  BC [%] of total carotenoids: 85.59%
B. trispora [2]; curcumin 0.1% w/v
  7,8-DH [%] of total carotenoids: 5.79%
  BC [%] of total carotenoids: 86.75%
B. trispora [2]; curcumin 0.3% w/v
  7,8-DH [%] of total carotenoids: 3.35%
  BC [%] of total carotenoids: about 91%
B. trispora [2]; [3]
  BC [%] of total carotenoids: 91.44%
B. trispora [2]; curcumin 1.0% w/v
  7,8-DH [%] of total carotenoids: 3.12%
  BC [%] of total carotenoids: 92.17%

## NNC(=O)c1ccncc1 [isoniazid, reference compound]
B. trispora [1]; isoniazid 0.28 g/l in production medium, no curcumin
  BC: 4.17 g/L
B. trispora [2]; addition of 0.28 g/l isoniazid, compared to no isoniazid
  increase in the percentage of beta-carotene based on total carotenoids: less than 10%
B. trispora [2]; addition of isoniazid (0.28 g/l)
  percentage of 7,8-dihydro-beta-carotene based on total carotenoids: 28.1%

Source: patent US12270065B2, “Methods for improving titer and purity of beta carotene fermentation in Blakeslea trispora (beta-carotene fermentation method)” (DSM IP Assets B.V., priority 2019, dated 2025)
